Reference: PubChem BioAssay (NCI)
Where “and” joins values, the source holds several entries; their conditions need not be identical. Equal values may be shown once.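 Assay format: 96-well plates, 48-hour exposure. GI50 is the concentration that inhibits growth by half. The concentration for full growth arrest is given as TGI.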

Assays:
Assay in all cases: DTP human tumour cell line panel, 48 h
M14 melanoma = test system: M14 melanoma
SF-268 CNS = test system: SF-268 CNS
SF-539 CNS = test system: SF-539 CNS
OVCAR-8 ovarian = test system: OVCAR-8 ovarian
K-562 leukemia = test system: K-562 leukemia
HT29 colon = test system: HT29 colon
EKVX NSCLC = test system: EKVX NSCLC
MDA-MB-231 breast = test system: MDA-MB-231 breast
UACC-257 melanoma = test system: UACC-257 melanoma
MCF7 breast = test system: MCF7 breast

Row | Compound | GI50 (M14 melanoma) | TGI (M14 melanoma) | GI50 (SF-268 CNS) | TGI (SF-268 CNS) | GI50 (SF-539 CNS) | TGI (SF-539 CNS) | GI50 (OVCAR-8 ovarian) | TGI (OVCAR-8 ovarian) | GI50 (K-562 leukemia) | TGI (K-562 leukemia) | GI50 (HT29 colon) | TGI (HT29 colon) | GI50 (EKVX NSCLC) | TGI (EKVX NSCLC) | GI50 (MDA-MB-231 breast) | TGI (MDA-MB-231 breast) | GI50 (UACC-257 melanoma) | TGI (UACC-257 melanoma) | GI50 (MCF7 breast) | TGI (MCF7 breast)
1 | O=C(c1ccccc1Nc1ccnc(C(F)(F)F)c1)N1CCN(c2cccc(Cl)c2)CC1 | 21.4 µM | > 74.3 µM | 29.3 µM | > 100 µM | 17.8 µM | 41.1 µM | 24.4 µM | > 87.8 µM | 19.2 µM | > 100 µM | 19.2 µM | 53.3 µM | 15.4 µM | > 87.5 µM | 16.1 µM | 56 µM | 12.8 µM | 49.2 µM | 18 µM | 80 µM
2 | CC(=O)OCC1OC(OC2C(COC(C)=O)OC(OCCC[S-])C(OC(C)=O)C2OC(C)=O)C(OC(C)=O)C(OC(C)=O)C1OC(C)=O.[Au+].c1ccc(CN2[CH-]N(Cc3ccccc3)C(c3ccccc3)=C2c2ccccc2)cc1 (stereo not given) | 3.26 µM | 14.5 µM | 5.2 µM | 24.9 µM | 4.46 µM | 17.6 µM | 3.75 µM | > 100 µM | 3.27 µM | 14.5 µM | 3.23 µM | 13.6 µM | 3.15 µM | 15.9 µM | 2.38 µM | 5.93 µM | 3.44 µM | 10.4 µM | 2.44 µM | 9.58 µM
3 | CCCS(=O)(=O)Nc1ccc(F)c(C(=O)c2c[nH]c3ncc(-c4ccc(Cl)cc4)cc23)c1F | 0.0403 µM and 0.0413 µM | 1.34 µM and 2.21 µM | 6.09 µM and 6.67 µM | 23.6 µM and > 10 µM | 3.91 µM and 4.51 µM | 17.1 µM and > 10 µM | 6.16 µM and > 8.65 µM | 43.6 µM and > 10 µM | 4.32 µM and > 8.72 µM | 19.6 µM and > 10 µM | 0.0887 µM and 0.0812 µM | 9.55 µM and > 10 µM | 6.86 µM and > 10 µM | 40.7 µM and > 10 µM | 3.98 µM and 5.16 µM | 18.9 µM and > 10 µM | 0.0485 µM and 0.0643 µM | 3.71 µM and 0.604 µM | 5.24 µM and 8.84 µM | 20.9 µM and > 10 µM
4 | COc1ccc(OC)c(-c2nc3sccn3c2/C=C2/C(=O)Nc3ccc(Cl)cc32)c1 | 23.1 µM | 53.8 µM | 30.6 µM | > 100 µM | 24.3 µM | 60.9 µM | 34.4 µM | > 100 µM | 29.9 µM | > 100 µM | 25.7 µM | 67.3 µM | 36.1 µM | > 100 µM | 20.3 µM | 55.3 µM | 21.4 µM | 44.3 µM | 27.2 µM | 85 µM
5 | Cc1ccc2nc3c(C)c(Cl)c(=O)cc-3sc2c1 | – | 36.4 µM | – | > 100 µM | – | 62.3 µM | – | > 100 µM | – | 19 µM | – | > 100 µM | – | > 95.6 µM | – | 15.8 µM | – | 53.8 µM | – | 61.8 µM
6 | CN(C)C[C@H]1CC[C@@H](CN(C)C)C1=O | – | 16.7 µM | – | 25.1 µM | – | 21.4 µM | – | 17.1 µM | – | 1.43 µM | – | 21.1 µM | – | 24.3 µM | – | 17.3 µM | – | 16 µM | – | 6.19 µM
7 | C(=N\Nc1nnc2c(n1)[nH]c1ccccc12)/c1cccnc1 | – | 46.2 µM | – | > 100 µM | – | > 100 µM | – | > 100 µM | – | > 100 µM | – | > 100 µM | – | > 100 µM | – | > 100 µM | – | > 100 µM | – | > 100 µM
8 | COc1ccc(C(=O)c2cc(OC)c(OC)c(OC)c2)cc1OC(C)=O | < 0.0143 µM | > 100 µM | 0.0883 µM | > 100 µM | < 0.01 µM | 0.0376 µM | 0.0451 µM | > 100 µM | < 0.01 µM | > 100 µM | 1.15 µM | > 100 µM | 2.24 µM | > 100 µM | 0.0369 µM | > 100 µM | > 100 µM | > 100 µM | 0.0346 µM | > 100 µM
